For 35 molecules, GI50 and TGI results are on record in PubChem BioAssay (NCI).

Each structure is given as a SMILES string.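 Test compounds were applied to cells in 96-well plates for 48 hours at 5 doses. The concentration for 50% growth inhibition is given as GI50. TGI denotes the concentration required for complete inhibition of growth.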

The test deals with MDA-MB-468 breast. The test can be described thus: DTP human tumour cell line panel, 48 h.

In general, GI50 refers to the concentration at which growth is held to half of that of the control. Usually TGI stands for the concentration giving total growth inhibition. Low readings indicate greater sensitivity of the cells, high ones lower sensitivity of the cells. With `O=C(CI)Nc1ccc(O)c2ccccc12`, the GI50 is 900 nM and the TGI came out at 2570 nM.
On to `COc1ccc(NC(=O)c2sc3nc(C)c(C(=O)/C=C/c4cccc(OC)c4)cc3c2N)cc1`, for which the GI50 was 732 nM and the TGI turned out to be 2240 nM.
In the case of `CC(=O)O[C@H]1C(=O)[C@@]2(C)[C@H]([C@H](OC(=O)c3ccccc3)[C@]3(O)C[C@H](OC(=O)[C@H](OC(=O)OC[C@H]4COC(C)(C)O4)[C@@H](NC(=O)c4ccccc4)c4ccccc4)C(C)=C1C3(C)C)[C@]1(OC(C)=O)CO[C@@H]1C[C@@H]2O`, the GI50 was 27.3 nM.
As to `O=C(Nc1ccc(F)cc1)Nc1ccc(Br)c(C(F)(F)F)c1`, the GI50 is 2220 nM and the TGI was 9540 nM.
For `C=C1C(=O)O[C@H]2[C@H]1CC/C(COC(=O)OC/C1=C/CC[C@@]3(C)O[C@H]3[C@H]3OC(=O)[C@@H](CN(C)C)[C@@H]3CC1)=C\CC[C@@]1(C)O[C@@H]21`, in that order: 1350 nM and 4000 nM.
The matching figures for `O=CN1N=C(c2cccc(Nc3ccnc4cc(Cl)ccc34)c2)CC1c1ccccc1` (centres undefined): 205 nM and 656 nM.
For `Cc1ccc2c(c1)C(=O)c1c-2c(OCCCN(C)C)nc2ccccc12`, in that order: 1430 nM and 3350 nM.
Turning to `Nc1nc2cc(CC[C@H]3C[C@@H](n4ccc5c(N)ncnc54)[C@H](O)[C@@H]3O)ccc2cc1Br`, the GI50 is 234 nM and the TGI was found to be 7980 nM.
For `C[C@H]1CNC(=O)c2cnn3ccc(nc23)N[C@H](C)c2cc(F)ccc2O1`, in that order: 1850 nM and 14600 nM.
For `COC(=O)Nc1nc2ccc(C(=O)c3ccccc3)cc2[nH]1`, in that order: 338 nM and above 100000 nM.
Take `C[C@H]1COCCN1c1cc(C2(S(=O)(=O)C3CC3)CC2)nc(-c2ccc(NC(=S)NCCO)cc2)n1`: the 50% growth inhibitory concentration (GI50) is below 10.8 nM and the TGI turned out to be 93.6 nM.
For the molecule `Cn1c(-c2ccccc2)c(/C=C/C2=[N+](C)c3ccccc3C2(C)C)c2ccccc21`, the GI50 is 343 nM and the TGI was found to be 2850 nM.
For `NC(N)=NC(N)=NCCCc1ccco1`, in that order: 81800 nM and 196000 nM.
Turning to `CC(C)=CC(=O)N[C@H]1CC[C@]2(C)C3CC[C@]4(C)C(C(C)N(C)C)=CCC4C3CCC2[C@H]1O` (some centres undefined), the GI50 is 1650 nM and the TGI was found to be 6330 nM.
For `COc1ccc(/C=C2\SC(=Nc3ccccc3)NC2=O)cc1`, in that order: 3180 nM and 22000 nM.
For `COC1=CC(c2ccc[nH]2)=N/C1=C\c1[nH]c(C)c(CC(=O)OCc2ccccc2)c1C`, in that order: 595 nM and 2450 nM.
The matching figures for `C[C@]12CC[C@H]3[C@@H](CC4SC(N)=NC45C/C(=N/NC(N)=O)CC[C@]35C)[C@@H]1CCC2=O` (some centres undefined): 1600 nM and 3170 nM.
On to `Cn1ccnc1C(=O)/C=C/c1ccc(CNC(=O)c2ccc(S(F)(F)(F)(F)F)cc2)cc1`, for which the GI50 was 3540 nM and the total growth inhibition concentration (TGI) was found to be 8710 nM.
For `Cc1cc(OCCOCCC(F)(F)P(=O)(O)O)ccc1CCc1cnc2c(N)nc3cc(CCC(=O)O)ccc3c2c1`, in that order: above 100000 nM and above 100000 nM.
As for `O=C(/C=C1\C(=O)N(Cc2ccccc2)c2ccccc21)c1ccc(OCCN2CCCCC2)cc1`, the GI50 is 1920 nM and the TGI came to 3800 nM.
Take `Clc1ccc2nc(CI)c(CI)nc2c1`: the GI50 is 4700 nM and the TGI came to 19100 nM.
For the molecule `N#C/C(=N\Nc1ccccc1)C(=O)Nc1cc(-c2ccccc2)nn1-c1ccccc1`, the GI50 is 1420 nM and the total growth inhibition concentration (TGI) was determined as 5880 nM.
For the molecule `CCCCCCCCCCCCCCCCOP(=O)([O-])OCC[N+](C)(C)C`, the GI50 is 1160 nM and the TGI came out at 3560 nM.
On to `CCCCCCCCCCCCCC[n+]1ccc(C(N)=O)cc1`, for which the GI50 is 401 nM and the concentration for total growth inhibition (TGI) stood at 2760 nM.
For `C=C1C(=O)O[C@H]2[C@H]1CC/C(Cn1cc(-c3ccc(F)cc3)nn1)=C\CC[C@@]1(C)O[C@@H]21`, in that order: 421 nM and 1580 nM.
The matching figures for `C=C1C(=O)O[C@H]2[C@H]1CC/C(COC(=O)CCCc1c[nH]c3ccccc13)=C\CC[C@@]1(C)O[C@@H]21`: 1760 nM and 4010 nM.
The matching figures for `C=C1SC(=Nc2ccccc2Cl)N(C(=O)c2sc3ccccc3c2Cl)C12CCCCC2`: 4910 nM and above 100000 nM.
Turning to `O=C1C(=O)c2ccccc2C(O)=C1CCCc1ccc(C2CCCCC2)cc1`, the GI50 is 2200 nM and the TGI amounted to 21500 nM.
On to `Cn1nc(C(F)(F)F)c(-c2cc(C(F)(F)F)cc(C(F)(F)F)c2)c1-c1ccc(OCc2ccc(Cl)cc2)cc1O`, for which the GI50 is 1430 nM and the TGI came out at 6360 nM.
For `C[n+]1c2ccccc2nc2ccccc21`, in that order: 711 nM and 2690 nM.
Take `CCCCCCCC(=O)SCC/C=C/[C@@H]1CC(=O)NCc2nc(cs2)C2=N[C@@](C)(CS2)C(=O)N[C@@H](C(C)C)C(=O)N1`: the GI50 is below 11.9 nM and the TGI was 1210 nM.
For the molecule `CN(C)CCCC1(c2ccc(F)cc2)OCc2cc(-c3cc4ccccc4s3)ccc21` (centres undefined), the GI50 is 1740 nM and the TGI was 3410 nM.
The matching figures for `CC([C@H]1CC=C2C3CCC4=C[C@@H](N(C)C)CC[C@]4(C)C3CC[C@@]21C)N(C)C` (some centres undefined): 1420 nM and 4720 nM.
For `COc1ccc(/C(C#N)=C/c2cc(OC)c(OC)c(OC)c2)cc1`, in that order: 19200 nM and above 100000 nM.
The matching figures for `COC(=O)c1c2c(c(C)[n+]([O-])c1C)C(=O)C=C(NCc1cccc(Cl)c1)C2=O`: 225 nM and 732 nM.
